Article PMC12680861, “Comparative analysis of LJ-4378 and tirzepatide in mouse models of obesity and weight regain” (Archives of Pharmacal Research, 2025)

Assays:
CYP2C9 = CYP2C9 (Homo sapiens, UniProt P11712); assay: CYP enzyme inhibition in pooled human liver microsomes (diclofenac substrate); conditions: microsomes, 10 µM
Procedure: Cytochrome 450 (CYP) enzyme inhibition was evaluated using pooled human liver microsomes (Corning, #452117). […] Substrates and corresponding metabolites for each CYP isoform were as follows: phenacetin and acetaminophen for CYP1A2 (Sigma Aldrich, #77440 and A7085, respectively), diclofenac and 4'-hydroxydiclofenac for CYP2C9 (Sigma Aldrich, D6899; TRC, H825225), S-mephenytoin and 4'-hydroxymephenytoin for CYP2C19 (Sigma Aldrich, UC175; Santacruz, sc210197), dextromethorphan and dextrorphan for CYP2D6 (Sigma Aldrich, #81091 and UC205), and midazolam and 1'-hydroxymidazolam for CYP3A4 (KFDA; Sigma Aldrich, UC430).
Samples were preincubated at 37 °C for 5 min, and the reaction was initiated by the addition of the NADPH regeneration system, followed by incubation at 37 °C for 15 min. The reaction was terminated by adding acetonitrile containing the internal standard, and centrifuged at 15,000 rpm for 5 min at 4 °C. The supernatant was analyzed by LC–MS/MS using a Nexera XR system (Shimadzu, Japan) coupled with a TSQ Vantage mass spectrometer (Thermo, USA). […] Metabolites were quantified in multiple reaction monitoring (MRM) mode with Xcalibur software (version 4.4).
All experiments were performed in duplicate with variability ≤ 15%. The percent activity of each CYP enzyme was calculated based on metabolite formation relative to the no-inhibitor control.

[1] = Pharmacokinetic study in mice, single I.V. or P.O. administration; assay type: in vivo, male C57BL/6 J mice; conditions: for F (oral bioavailability): dose-normalized AUCinf
Procedure: The pharmacokinetics of LJ-4378 were evaluated in male C57BL/6 J mice following a single administration by either the oral (P.O.) or intravenous (I.V.) route. For P.O., LJ-4378 was administered at 10, 20, or 50 mg/kg in a vehicle composed of 0.5 mg/mL L-ascorbic acid, 5% DMSO, 20% PEG400, 20% Tween 80, and 55% of 0.1% copovidone. For I.V. administration, a 2 mg/kg dose was delivered via tail vein injection in a vehicle consisting of 5% DMSO, 25% PEG400, and 70% sterile water. Blood samples (200 μL) were collected at 5, 15, and 30 min and 1, 2, 4, 8, 12, and 24 h post-dose for the P.O. groups, and at 2, 5, 15, and 30 min and 1, 2, 4, 8, and 12 h post-dose for the I.V. group. Plasma was separated by centrifugation, and the concentrations of LJ-4378 were determined using a validated LC–MS/MS method. Pharmacokinetic parameters were calculated using non-compartmental analysis with Phoenix WinNonlin (v8.3), and included Cmax, Tmax, AUClast, AUCinf, t1/2, and clearance (Maclean et al. [2011]). Oral bioavailability was calculated using dose-normalized AUCinf values.

[2] = Steady state tissue partition coefficient after I.V. infusion; assay type: in vivo, SD rats
Procedure: In this study, steady state tissue partition coefficients ( KP,T , i.e., the ratio of tissue to plasma concentrations in steady state) Eq. (1) were determined for LJ-4378 in SD rats. […] Therefore, to ensure a steady state condition, rats received I.V. infusion (i.e., infusion solution, 5% DMSO in normal saline; delivery rate, 10 µL/min; infusion rate, 0.31 µg/µL; total dose of LJ-4378, 0.837 mg per rat) for 270 min (i.e., the time exceeding five times the half-life). Blood samples (~ 150 µL) were collected from the animal at every 10 min from 240 to 270 min for the confirmation of the steady state of the compound. At completion of the last blood collection, rats were sacrificed by decapitation, and four representative tissues (i.e., gonadal adipose, brain, lung, and liver) were harvested. Tissues were then washed four times with ice-Dulbecco’s phosphate-buffered saline (DPBS), weighed, and homogenized in two volumes of DPBS using an Ultra Turrax homogenizer (IKA, Staufen, Germany). Aliquots (50 µL) of plasma and tissue homogenate were mixed with 200 µL ice-cold acetonitrile containing propranolol (100 ng/mL, internal standard). After vortex mixing for 10 min, the mixture was centrifuged at 16,100 × g for 5 min at 4 °C, and 10 µL of the supernatant was injected directly onto the HPLC–MS/MS system. The concentration of LJ-4378 in the biological sample was quantified on an Agilent 1200 HPLC coupled to an API 3200 mass spectrometer with a Phenomenex Luna C18(2) column (3 µm, 100 Å, 50 × 2 mm). Chromatography was performed under isocratic conditions with 80% acetonitrile containing 0.1% formic acid (mobile phase A) and 20% water containing 0.1% formic acid (mobile phase B) at a flow rate of 0.4 mL/min.
When calculating KP,T for LJ-4378 in […], Eq. (1) was used:1 KP,T=CT,ss/Cp,ss where CT,ss and Cp,ss represented the tissue and plasma concentrations at 270 min after the initiation of LJ-4378 infusion. In addition, under the free-drug hypothesis, the KP,T can be expressed as the ratio of the unbound fractions in plasma ( fup ) and tissue ( fu,T ) [Eq. (2)]. Given similar interspecies values of tissue unbound fraction (Poulin and Theil [2000]), the rat KP,T values were extrapolated to those in mice and humans using the following Eq. (3):2 KP,T=fup/fu,T 3 KP,T,extrapolated=KP,T,rat×fup/fup,rat

[3] = SD rats (observed), I.V. infusion 270 min

Chain of CYP2C9 (P11712 whole entry, canonical isoform): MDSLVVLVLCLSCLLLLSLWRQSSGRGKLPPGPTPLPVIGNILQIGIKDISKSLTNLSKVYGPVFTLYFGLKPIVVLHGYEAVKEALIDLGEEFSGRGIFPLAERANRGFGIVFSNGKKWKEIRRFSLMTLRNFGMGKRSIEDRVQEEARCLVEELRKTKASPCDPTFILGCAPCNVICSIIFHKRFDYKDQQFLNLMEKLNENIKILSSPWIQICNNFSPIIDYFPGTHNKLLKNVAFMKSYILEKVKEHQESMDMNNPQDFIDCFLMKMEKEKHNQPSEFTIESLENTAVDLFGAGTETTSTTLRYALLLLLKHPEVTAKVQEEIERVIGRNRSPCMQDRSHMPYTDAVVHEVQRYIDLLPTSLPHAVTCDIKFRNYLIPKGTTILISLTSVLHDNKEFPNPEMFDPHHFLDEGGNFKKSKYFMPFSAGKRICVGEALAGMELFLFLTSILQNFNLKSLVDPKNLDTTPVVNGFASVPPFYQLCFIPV

Q: With `CCCCC#Cc1nc(N)c2ncn([C@@H]3SC[C@@H](O)[C@H]3O)c2n1` [LJ-4378] as the molecule, how does the “% of control activity CYP2C9” value (CYP2C9) read?
A: 95.8%

Q: And the AUC0-t ([1]; I.V. 2.00 mg/kg)?
A: 411.45 ng·h/mL

Q: What about the CL ([1]; I.V. 2.00 mg/kg) of the same molecule?
A: 80.7 (mL/min)/kg

Q: What about the Cmax ([1]; I.V. 2.00 mg/kg) of the same molecule?
A: 2395.23 ng/mL

Q: What about the Tmax ([1]; I.V. 2.00 mg/kg) of the same molecule?
A: 1.8 min

Q: And the t1/2 ([1]; I.V. 2.00 mg/kg)?
A: 0.46 h

Q: What about the AUC0-t ([1]; P.O. 10.00 mg/kg) of the same molecule?
A: 1273.67 ng·h/mL

Q: And the CL ([1]; P.O. 10.00 mg/kg)?
A: 128.5 (mL/min)/kg

Q: And the Cmax ([1]; P.O. 10.00 mg/kg)?
A: 1220.57 ng/mL

Q: And the Tmax ([1]; P.O. 10.00 mg/kg)?
A: 4.8 min

Q: What about the t1/2 ([1]; P.O. 10.00 mg/kg) of the same molecule?
A: 2.64 h

Q: And the “F (oral bioavailability)” value ([1]; P.O. 10.00 mg/kg)?
A: 62.93%

Q: And the AUC0-t ([1]; P.O. 20.00 mg/kg)?
A: 3067.21 ng·h/mL

Q: And the CL ([1]; P.O. 20.00 mg/kg)?
A: 103.2 (mL/min)/kg

Q: And the Cmax ([1]; P.O. 20.00 mg/kg)?
A: 2401.74 ng/mL

Q: And the Tmax ([1]; P.O. 20.00 mg/kg)?
A: 15 min

Q: What about the t1/2 ([1]; P.O. 20.00 mg/kg) of the same molecule?
A: 3.89 h

Q: And the “F (oral bioavailability)” value ([1]; P.O. 20.00 mg/kg)?
A: 78.42%

Q: What about the AUC0-t ([1]; P.O. 50.00 mg/kg) of the same molecule?
A: 8446.78 ng·h/mL

Q: And the CL ([1]; P.O. 50.00 mg/kg)?
A: 93.0 (mL/min)/kg

Q: And the Cmax ([1]; P.O. 50.00 mg/kg)?
A: 5307.60 ng/mL

Q: What about the Tmax ([1]; P.O. 50.00 mg/kg) of the same molecule?
A: 30 min

Q: What about the t1/2 ([1]; P.O. 50.00 mg/kg) of the same molecule?
A: 3.11 h

Q: And the “F (oral bioavailability)” value ([1]; P.O. 50.00 mg/kg)?
A: 86.08%

Q: And the “Steady state tissue partition coefficient (KP,T), Adipose” value [2, 3]?
A: 0.0843 ± 0.00653

Q: What about the “Steady state tissue partition coefficient (KP,T), Liver” value [2, 3] of the same molecule?
A: 0.440 ± 0.194

Q: What about the “Steady state tissue partition coefficient (KP,T), Lungs” value [2, 3] of the same molecule?
A: 0.228 ± 0.0793

Q: And the “partitioning in adipose tissue relative to brain” value ([2]; SD rats, steady state)?
A: over four-fold higher partitioning
